# The NIST ThermoML archive (doi:10.1007/s10765-009-0648-5)
# Numbers after ± are expanded uncertainties.
# Details: 101 kPa, Liquid
compound,measurement,setting,value
CCC[n+]1ccn(C)c1.[Br-] [1-methyl-3-propylimidazolium bromide],mass density,288.15 K,1323.47 ± 3.3 kg/m3
same,speed of sound,288.15 K,1699.3 ± 2.6 m/s
same,mass density,293.15 K,1319.84 ± 3.3 kg/m3
same,speed of sound,293.15 K,1685 ± 2.6 m/s
same,mass density,298.15 K,1316.22 ± 3.3 kg/m3
same,speed of sound,298.15 K,1672 ± 2.6 m/s
same,mass density,303.15 K,1312.6 ± 3.2 kg/m3
same,speed of sound,303.15 K,1659.9 ± 2.6 m/s
same,mass density,308.15 K,1308.97 ± 3.2 kg/m3
same,speed of sound,308.15 K,1648.3 ± 2.6 m/s
